Source: article PMC5408584 (Lipids, 2016)

Tests used:
rat FABP1 [1] = target: T1, rat FABP1 (Rattus norvegicus, UniProt P02692); conditions: cited from earlier work; for number of ligand molecules bound per FABP1 (binding sites): rat FABP1, fractional saturation curves, Fig 2B; for Kd: read-out: Kd, direct binding of NBD-labeled ligand, rat FABP1, mean ± SE n=3, Fig 2B
T1 sequence (P02692 1-127): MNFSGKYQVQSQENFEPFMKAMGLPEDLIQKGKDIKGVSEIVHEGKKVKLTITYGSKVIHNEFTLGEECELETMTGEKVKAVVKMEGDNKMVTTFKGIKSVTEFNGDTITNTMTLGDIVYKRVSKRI

L-cells = experiment: Cellular uptake of NBD-labeled probes by confocal imaging; format: cell-based, murine; conditions: Fig 3B
human FABP1 [2] = conditions: read-out: Ki (printed Kids), ANS displacement; cited from earlier work
human FABP1 [3] = conditions: cited from earlier work
human FABP1 T94A variant = conditions: T94A variant vs WT human FABP1; cited from earlier work
rat FABP1 [4] = target: T1, rat FABP1; conditions: read-out: Ki, displacement of FABP1-bound cis-parinaroyl-CoA; rat FABP1, mean ± SE n=3, Fig 1A; cited from earlier work
human WT FABP1 [5] = target: T2, human WT FABP1 (Homo sapiens, UniProt P07148); experiment: DAUDA fluorescent ligand displacement assay, human FABP1; format: binding; conditions: AEA 0–6μM, Fig 1B
T2 sequence (P07148 1-127): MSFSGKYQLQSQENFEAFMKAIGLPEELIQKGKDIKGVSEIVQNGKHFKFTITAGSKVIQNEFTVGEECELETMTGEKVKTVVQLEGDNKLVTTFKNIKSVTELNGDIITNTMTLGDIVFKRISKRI

human WT FABP1 [6] = target: T2, human WT FABP1; experiment: cis-parinaroyl-CoA fluorescent ligand displacement assay, human FABP1; format: binding; conditions: AEA 0–6μM, Fig 1B

## O=C(CCC/C=C\C/C=C\C/C=C\C/C=C\CCCCCNc1ccc([N+](=O)[O-])c2nonc12)OC(CO)CO [NBD-2-AG]
Rat FABP1 [1]
  number of ligand molecules bound per FABP1 (binding sites): single
  Kd: 250 ± 50 nM
L-cells
  maximal uptake, fold higher than that of NBD-ARA: at least 1.6 fold

## CCCCC/C=C\C/C=C\C/C=C\C/C=C\CCCC(=O)O [ARA, arachidonic acid]
Human FABP1 [2]
  Ki: 113 ± 6 nM

## CC(C)CCC[C@@H](C)[C@H]1CC[C@H]2[C@@H]3CC=C4C[C@@H](O)CC[C@]4(C)[C@H]3CC[C@]12C [cholesterol]
Human FABP1 [3]; human vs rat FABP1
  fold weaker affinity of human FABP1 compared to rat FABP1: 3.5 fold
Human FABP1 T94A variant
  fold increase in affinity of human FABP1 by T94A substitution: 3 fold

## CCCCC/C=C\C/C=C\C/C=C\C/C=C\CCCC(=O)OC(CO)CO [2-AG, 2-arachidonoylglycerol]
Rat FABP1 [4]
  Ki: 205 ± 3 nM

## CCCCCCCC/C=C\CCCCCCCC(=O)SCCNC(=O)CCNC(=O)[C@H](O)C(C)(C)COP(=O)(O)OP(=O)(O)OC[C@H]1O[C@@H](n2cnc3c(N)ncnc32)[C@H](O)[C@@H]1OP(=O)(O)O [oleoyl-CoA]
Human FABP1 [3]; human vs rat FABP1 within the same study
  fold higher affinity of human FABP1 compared to rat FABP1: 2.2 fold

## O=C(O)CCC/C=C\C/C=C\C/C=C\C/C=C\CCCCCNc1ccc([N+](=O)[O-])c2nonc12 [NBD-ARA, 20-[(7-nitro-2-1,3-benzoxadiazol-4-yl)amino] arachidonic acid]
Rat FABP1 [1]
  number of ligand molecules bound per FABP1 (binding sites): two
  Kd: 660 ± 60 nM

## CCCCC/C=C\C/C=C\C/C=C\C/C=C\CCCC(=O)NCCO [AEA, N-arachidonoylethanolamide]
Human WT FABP1 [5]
  displacement of human FABP1 bound DAUDA: did displace
Human WT FABP1 [6]
  displacement of human FABP1 bound cis-parinaroyl CoA: did not displace
Rat FABP1 [4]
  Ki: 400 ± 20 nM

## O=C(CCC/C=C\C/C=C\C/C=C\C/C=C\CCCCCNc1ccc([N+](=O)[O-])c2nonc12)NCCO [NBD-AEA, 20-[(7-nitro-2-1,3-benzoxadiazol-4-yl)amino] arachidonoylethanolamide]
Rat FABP1 [1]
  number of ligand molecules bound per FABP1 (binding sites): single
  Kd: 800 ± 200 nM
L-cells
  maximal uptake, fold higher than that of NBD-ARA: at least 1.6 fold
